“Also recorded” adds a separate entry of the source. Numbered stars: 1 amine (or outer) side, 2 acyl side, 3 side chain; on linkers, the order of the positions; unused ones are H or OH. Square brackets hold non-standard residues; d marks the D form. Peptide text beside a SMILES is read from it. * marks the point of attachment. X1 = CC(N[*:1])C(=O)C(F)(F)C(=O)[*:2]; Boc = CC(C)(C)OC(=O)*
What was measured:
hSPP = target: T1, hSPP (Homo sapiens, UniProt Q8TCT9); assay: FBA/hSPP co-transfected HEK 293T cell cleavage assay (Aβ ELISA, Western blot, IP/MS); assay type: cell-based; conditions: for inhibition of xAβ1-25/K16A secretion (in words) / inhibition at 25 µM: 25 μM, ELISA; for inhibition of FBA cleavage by Western blot: Fig 3C lower panel; for IC50: HEK cells, 24 h, xAβ1-25/K16A by Aβ ELISA, mean ± standard error, read-out: IC50 on FBA/SPPL co-transfected cells; for inhibition at 25 µM: DMSO = 100%, read-out: inhibition of the SPP/SPPLs; for rank order of inhibition: number in parenthesis in Table 3
T1 construct: expressed in transfected cells; host or cells: HEK 293T
T1 sequence (Q8TCT9 1-377): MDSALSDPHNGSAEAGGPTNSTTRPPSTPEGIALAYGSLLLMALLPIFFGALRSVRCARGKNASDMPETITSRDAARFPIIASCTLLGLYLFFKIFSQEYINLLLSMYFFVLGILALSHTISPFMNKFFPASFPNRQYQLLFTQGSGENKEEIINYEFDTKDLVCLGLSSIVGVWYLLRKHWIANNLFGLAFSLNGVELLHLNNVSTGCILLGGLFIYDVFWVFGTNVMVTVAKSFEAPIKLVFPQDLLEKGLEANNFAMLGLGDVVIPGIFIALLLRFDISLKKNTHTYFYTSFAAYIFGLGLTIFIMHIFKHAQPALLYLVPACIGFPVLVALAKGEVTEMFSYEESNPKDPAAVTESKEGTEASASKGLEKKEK
Description: (§1) Expression constructs in pcDNA6 for COOH-terminal FLAG (DYKDDDDK) and strep (WSHPQFEK) tagged SPPL2a, SPPL2b, hSPP and pSPP were generated as previously described. Untagged versions of all enzymes were also made and ligated into the pAG3 vector. Substrates (Fig 1) were designed as follows: FLAG-BRI2_1-81- Aβ1-25/K16A (FBA). The K16A mutation was incorporated to prevent potential α-secretase cleavage that would preclude ELISA based detection of the released COOH-terminal fragment. The substrate DNA was cloned into the expression vector pcDNA6. Constructs were confirmed by DNA sequencing. The overexpression of substrates was performed by transiently transfecting human embryonic kidney (HEK 293T) cells with or without SPP/SPPL vectors. Cells were grown in DMEM media supplemented with Hyclone 10% fetal bovine serum (GE, Logan, Utah, USA) and 1% penicillin/streptomycin (Life Technologies, Grand Island, NY, USA). Briefly, 2.7 μg DNA was applied to a 75% confluent 6 well plate (Corning, Tewksbury, MA, USA) using the polycation polyethylenimine (PEI) transfection method. Inhibitor testing experiments were conducted in 48 well plates with appropriately adjusted amounts of DNA and PEI and incubated 12–16 hours, after which the growth medium was replaced with fresh medium. DMSO (Sigma, St. Louis, MO, USA) and GSIs were added at the appropriate concentration. The GSIs, L685,458 and Compound W were purchased from Tocris (Tocris, Bristol, UK). (Z-LL)2 ketone, Compound E, DAPT, GSI II were purchased from Calbiochem (Merck Millipore, Billerica, MA, USA). LY-411,575 was synthesized by A. Fauq at the Mayo Clinic Chemical Core. Twenty-four hours later, the medium was collected for assay by ELISA and MS. A20 cells (TIB-208) (ATCC, Manassas, VA, USA) were cultured in RPMI-1640 medium (ATCC) supplied with 10% fetal bovine serum, 1% penicillin/streptomycin and 0.05 mM 2-mercaptoethanol (Life Technologies). At the density of 5x10^5 cells/ml, A20 cells were spun down at 1000 g for 2 min and resuspended in fresh medium supplied with DMSO or GSIs and incubated for 16 hr.
(§2) Sandwich ELISAs used for Aβ detection were performed as previously described. Briefly, Aβ and Aβ adducts with substrate TMD in conditioned media was captured with Ab5 antibody (human Aβ1–16 specific) and detected with horseradish peroxidase mAb 4G8 (Covance, Princeton, NJ, USA). Synthetic Aβ1–40 was used as standard. All ELISAs were developed with TMB substrate (KPL, Gaithersburg, Maryland, USA). Bis-Tris precast gels (Biorad, Hercules, CA, USA) were used for all SDS-PAGE. Monoclonal anti-FLAG M2 antibody (Sigma) and Aβ1–16 antibody 6E10 (Covance) were used for Western blotting. Antisera against SPPL2a, SPPL2b, hSPP and pSPP were generated as previously described and were used at dilution of 1:1000 for Western blotting. Anti-CD74 In-1 antibody (BD Bioscience, San Jose, CA, USA) was used for A20 cell lysate Western blotting at dilution of 1:1000.
Immunoprecipitation and mass spectrometry of xAβ1–25 in conditioned media were performed as previously described. In this study, 10 ml conditioned media were used for each experiment. ICDs were immunoprecipitated with anti-FLAG M2 magnetic beads. Cells from 10 cm dished treated with DMSO or 20 μM LY-411,575 were used for each test.

SPPL2a = system: T2, SPPL2a; assay: Endogenous CD74 NTF P8 turnover in non-overexpressing A20 cells (Western blot, In-1 antibody); assay type: cell-based, mouse; conditions: for stabilization of the CD74 8 kDa NTF P8: 25 μM, 16 hr; for dose response of P8 fragment stabilization (in words): different doses; for lowest concentration inhibiting P8 turnover: dose response
T2 construct: endogenous SPPL2a cleavage of CD74 in a murine B-Cell line; host or cells: A20 mouse B lymphocyte cells
Procedure: as §1, with “Untagged” for “Expression constructs in pcDNA6 for COOH-terminal FLAG (DYKDDDDK) and strep (WSHPQFEK) tagged SPPL2a, SPPL2b, hSPP and pSPP were generated as previously described. Untagged”
as §2

Structure (SMILES)	FBA cleavage by co-transfected SPPL (in words) (hSPP; 10 μM, Aβ ELISA, Fig 1D)	generation of the SPP/SPPL dependent 10 kDa ICD (hSPP; 10 μM, Western blot anti-FLAG M2)	inhibition of xAβ1-25/K16A secretion (in words) (hSPP)	inhibition of FBA cleavage by Western blot (hSPP)	IC50 (hSPP) [nM]	inhibition at 10 µM (hSPP; HEK-293T, 10 μM, overnight, Aβ ELISA) [%]	inhibition at 25 µM (hSPP; HEK-293T) [%]	rank order of inhibition (hSPP)	stabilization of the CD74 8 kDa NTF P8 (SPPL2a)	dose response of P8 fragment stabilization (in words) (SPPL2a)	lowest concentration inhibiting P8 turnover (SPPL2a) [nM]	inhibition of xAβ1-25/K16A secretion (in words) (hSPP; listed as Comp E)	cleavage products in conditioned media by IP/MS (hSPP; 20 μM)
CC(C)C[C@H](NC(=O)OCc1ccccc1)C(=O)N[C@@H](CC(C)C)C(=O)NCC(=O)CNC(=O)[C@H](CC(C)C)NC(=O)[C@H](CC(C)C)NC(=O)OCc1ccccc1 [(Z-LL)2 ketone]	largely inhibited	significantly reduced	largely inhibited	efficiently inhibited	519 ± 97	> 75	> 90	4	greatly stabilized	stabilized the P8 fragment in a dose dependent manner	40	–	–
C[C@H](NC(=O)Cc1cc(F)cc(F)c1)C(=O)N[C@H]1N=C(c2ccccc2)c2ccccc2N(C)C1=O [Compound E]	–	–	inhibited; also recorded: selectively inhibit hSPP cleavage	efficiently inhibited	1470 ± 93	–	–	–	did not show significant effects	–	–	selectively inhibit hSPP	–
C[C@H](NC(=O)Cc1cc(F)cc(F)c1)C(=O)NC(C(=O)OC(C)(C)C)c1ccccc1 (stereo partly shown) [DAPT]	–	–	does not inhibit	–	–	–	–	–	no inhibition	–	–	–	–
CC[C@H](C)[C@H](NC(=O)[C@@H](NC(=O)OC(C)(C)C)C(C)C)C(=O)NC(C)C(=O)C(F)(F)C(=O)N[C@H](C(=O)N[C@H](C(=O)OC)[C@@H](C)CC)C(C)C (stereo partly shown) [GSI II] (Boc-VI[X1]VI-OMe)	–	–	efficiently inhibited; also recorded: largely inhibited	efficiently inhibited	423 ± 92	–	–	3	greatly stabilized	stabilized the P8 fragment in a dose dependent manner	40	–	–
C[C@H](NC(=O)[C@@H](O)c1cc(F)cc(F)c1)C(=O)N[C@@H]1C(=O)N(C)c2ccccc2-c2ccccc21 [LY-411,575]	–	–	largely inhibited	efficiently inhibited	150 ± 106	–	> 90	1	greatly stabilized	stabilized the P8 fragment in a dose dependent manner	40	–	No major cleavage product was detected

From PMC4457840, “Differential Inhibition of Signal Peptide Peptidase Family Members by Established γ-Secretase Inhibitors” (PLoS ONE, 2015)
